Experimental findings from patent publication US20250144187A1, “COMBINATION OF HYDROLASES AND ANTI-MICROORGANISM DRUGS AND USES THEREOF” (CENTRE FOR EYE AND VISION RESEARCH LIMITED, priority 2023, published 2025) are described below.

For assay [1], the system named is MRSE. Put plainly: High-throughput screening of 4989 compounds with human lysozyme. It counts as cell-based, Staphylococcus epidermis. As to conditions: for MRSE Inhibition ratio (%): compound 2.5 μM + 1 mg/ml lysozyme relative to compound only.
Assay [2] concerns MRSE. Put plainly: Time-killing curves, tedizolid phosphate/lysozyme. It counts as cell-based, Staphylococcus epidermis. As to conditions: tedizolid phosphate + 0.5 mg/ml lysozyme, after 22 hours; dropping from the level of 10^12.
Assay [3] has as its system MRSA. Put plainly: Check board broth micro-dilution assay, tedizolid phosphate with lysozyme. In kind it is cell-based, Staphylococcus aureus. As to conditions: for FICI: tedizolid phosphate + lysozyme. The procedure: (§1) 2) Check board broth micro-dilution assays. According to standard two-fold dilution method [Sun. H et al., Nat. Commun. 11, 5263 (2020) tedizolid phosphate at different concentrations were added into fresh LB medium (or trypticase soy troth medium with 5% defibrinated horse blood) containing different concentrations of human lysozyme in 96-well plate. Then, 20 μl of 1.0×10^7 CFU/ml logarithmic cultures of MRSA or MRSE were added into each well of the plate and co-incubated overnight. Drug-free LB medium in the absence or presence of bacteria served as background control and growth control group, respectively. […] Thus, there would be a series of FICI values. In most of cases, the lowest one among these values was listed to reflect the best achieving degree of combination therapy. In terms of the lowest FICI, FICI≤0.5, 0.5<FICI<1 or FICI≥1, would indicate the combination has synergy, part synergy or non-synergy effects, respectively.
On the technique in general: In broth dilution the organism is exposed to a series of concentrations in liquid medium.

The test system of assay [4] is MRSE. The description is as above. As to conditions: tedizolid phosphate and lysozyme. In kind it is cell-based, Staphylococcus epidermis. The procedure: as §1
Assay [5] deals with MRSA and MRSE. Put plainly: Resistance development studies (serial passages), tedizolid phosphate/lysozyme. It counts as cell-based. As to conditions: after 12-day serial passages. The procedure:
5) Resistance development studies. […] H et al., Nat Commun. 11, 5263 (2020)], MRSA at exponential phase was diluted (1:1000) into fresh LB medium containing different concentrations of tedizolid phosphate, lysozyme alone or their combination. After cultured at 37° C. for 24 hours, the MIC of culture was determined by standard two-fold serial dilutions in 96-well microtiter plates. […] . All assays were performed in triplicate.

Assay [6] relates to MRSA in ARPE-19 cells. Put plainly: Cell infection model, tedizolid phosphate/lysozyme.
Assay [7] deals with MRSE. Description: Mutation frequency and prevention concentration analysis, tedizolid phosphate/lysozyme.
For assay [8], the system named is alkaline phosphatase extracted from MRSA. Description: Enzyme activity of alkaline phosphatase (in vitro hydrolysis of tedizolid phosphate). As to conditions: enzyme from MRSA of the combination therapy group, after 1 hour. In kind it is biochemical, Staphylococcus aureus. How it is done:
14) Enzyme activity of alkaline phosphatase. All enzyme activities of alkaline phosphatase were analyzed according to the modified method as previously described [Zhao, X.-y et al., Nature 46, 86-90 (2009); Zhang, XC e al., Anal. Chem. 92, 5185-5190 (2020); Rosch, J. & Caparon, M. Science 304, 1513-1151 (2004); Wang. W et al., PLoS One 10, e012403512013); Ghosh, S. S et al., Circ. Res. 128, 1646-1659 (2021)]. Briefly, mid-log-phase MRSA or MRSE was treated with lysozyme, tedizolid phosphate or their combination at different concentrations. Those without any treatment served as untreated group. After incubation at 37° C. for 1 hour, all samples were collected, washed by distilled water and re-suspended in distilled water to collect bacterial suspension with an initial density of about 5.0×10^12 CFU/ml according to pre-experiment. Then, sonication lysis for 40 minutes at 4° C. and centrifugation at 18,000 g at 4° C. for 20 minutes were performed to collect these supernatants. Next, 20 μl of each supernatant was incubated with 4 μg of tedizolid phosphate. […] These slides were visualized under fluorescence microscopy and randomly selected bacteria were analyzed at ×1,500 magnification. To quantify the enzyme activity, similar protocol was performed on cell lysis supernatant instead of above-described bacterial suspension. Finally, absorption spectrums (300-800 nm) were collected and analyzed. […]

In assay [9] the test system is MRSA. Put plainly: Time-killing curves, tedizolid phosphate/lysozyme. In kind it is cell-based, Staphylococcus aureus. As to conditions: tedizolid phosphate + 0.5 mg/ml lysozyme, after 22 hours; dropping from the level of 10^12. The procedure: 3) Time-killing curves. According to standard method [Sun. H et al., Nat. Commun. 11, 5263 (2020); Thappeta, K. R. V., Vikke. Y. S., Yong. A. M. H., Chan-Park. M. B. Kline, K. A. Combined efficacy of an antimicrobial cationic peptide polymer with conventional antibiotics to combat multidrug-resistant pathogens. ACS Infect. Dis. 6, 1229-1237 (2020)], over-night cultured MRSA was diluted and aliquoted into new sterile 50 ml tubes at 1:1000 ratio. Then, the bacterial suspension was co-cultured with 0.25 or 0.5 μg/ml tedizolid phosphate, 0.5 mg/ml lysozyme or their combination at 37° C. with shaking at 50 rpm. Similar bacterial suspension without any additions served as control group. To measure their real bacterial loads to draw their kinetic time-killing curves, 20 μl of each culture was extracted at time intervals of 0, 1, 3, 6, 9, 12 and 22 hours, and then 10 μl of each sample (10-fold serial dilution) was applied onto LB-agar plate and incubated at 37° C. for 24 hours. All assays were performed in triplicate.

Assay [10] relates to ocular bacterial communities in tears. Put plainly: Microbiome assay (16S rRNA) in ocular infection model. As to conditions: combination therapy; infected untreated ~3%, healthy 0.052%. It counts as in vivo, C57BL/6 mice.

Bounds are passed on as bounds.

In the case of `C=CC1=C(C(=O)O)N2C(=O)[C@@H](NC(=O)/C(=N\O)c3csc(N)n3)[C@H]2SC1` [cefdinir, Cefdinir], the “MRSE Combination” value in [1] (OD600 at 24-hour, compound 2.5 μM + 1 mg/ml lysozyme) is reported as 0.0528. Also, the “MRSE Drug only” value in assay [1] (OD600 at 24-hour, compound 2.5 μM without lysozyme) came out at 0.6206. Also, the entries for the “MRSE Inhibition ratio (%)” value in assay [1] and in assay [1] (listed as Ce ? dinir) were “above 90%” and 99.68%, respectively.

As for `Cn1nnc(-c2ccc(-c3ccc(N4C[C@H](COP(=O)(O)O)OC4=O)cc3F)cn2)n1` [tedizolid phosphate, Tedizolid Phosphate], the “bacterial load per ml culture” value in [2] and in assay [9] was 10^6 colony forming units (CFUs) in each case. In addition, the FICI in assay [3] (absence of urea-cycle inhibitors) is 0.015; in [3] (cultures of both inhibitors), “up to 0.25”; in assay [3] (presence of BB-Cl-Amidine or acetohydroxamic acid) it was 0.1. For the same compound, the “fractional inhibitory concentration index (FICI)” value in assay [3] (tedizolid phosphate and lysozyme) was under 0.023; in assay [4] it was under 0.023. Besides, the figures for the “changes in the MIC level of tedizolid phosphate” value in assay [5] (combination therapy with lysozyme) and in assay [5] (tedizolid phosphate alone) were “remained unchanged” and 30 fold, respectively. Besides, in assay [6] (1.0 μg/ml tedizolid phosphate + 0.5 mg/ml lysozyme, MOI 10), the “death of infected ARPE-19 cells” value is recorded as “cell death was prevented”. Moreover, the “bacterial load in ARPE-19 cells” value in assay [6] (≥1.0 μg/ml tedizolid phosphate in the presence of 0.5 mg/ml lysozyme, reduced from 10^7) is on record as 10^4 CFU/ml. Moreover, the mutation frequencies was 2×10^−9 in assay [7] (combination with lysozyme) and ≥ 5×10^−7 in assay [7] (without combination therapy). In addition, the “prevention concentrations of tedizolid phosphate” value was at most 1 µg/mL in assay [7] (combination with lysozyme) and over 50 µg/mL in assay [7] (without lysozyme). Moreover, in [8], the tedizolid phosphate hydrolyzed result was “up to 65%”. For the same compound, the “proportion of Staphylococcus in tear bacterial communities” value in assay [10] is recorded as about 0.078%.
